From paper PMC11702208 (RSC Advances, 2025)
Several values for one entry are separate records, joined by “and”; a condition that tells them apart may be missing. Equal entries are not always repeated.

Tested on: T-47D cells
Assay: Annexin V-FITC/PI apoptosis assay
Format: cell-based

How did the “Apoptosis Early” value turn out when `CCN(CC)c1ccc(C=NNC(=O)CSc2nc3ccccc3c(=O)n2Cc2ccc(S(N)(=O)=O)cc2)c(O)c1` [Compound 5, 4-((2-((2-(2-(4-(Diethylamino)-2-hydroxybenzylidene)hydrazineyl)-2-oxoethyl)thio)-4-oxoquinazolin-3(4H)-yl)methyl)benzenesulfonamide] was run?
Its value is 9.3% and 9.28%.

What about the “Apoptosis Late” value of the same compound?
Its value is 14.8% and 14.75%.

What about the “Apoptosis Total” value of the same compound?
Its value is 31.07%.

And the Necrosis?
The Necrosis was 7.04%.
